Measured values reported in ChEMBL document CHEMBL4118137, “Design, synthesis and antineoplastic activity of novel hybrids of podophyllotoxin and indirubin against human leukaemia cancer cells as multifunctional anti-MDR agents” (Bioorg Med Chem Lett, 2018).
Activity calls are given as the source filed them. The rule behind the calls is not given here.

Legend:
K562/VCR [1] = test: Antiproliferative activity against human K562/VCR cells after 72 hrs by CCK8 assay; format: functional, cell-based
K562 = test: Antiproliferative activity against human K562 cells after 72 hrs by CCK8 assay; format: functional, cell-based; details: K562, 72 h
[2] = Resistance factor, ratio of IC50 for human K562/VCR cells to IC50 for human K562 cells; format: functional
K562/VCR [3] = test: Cell cycle arrest in human K562/VCR cells assessed as accumulation at G2 phase at 0.05 uM after 48 hrs by propidium iodide staining-based flow cytometric method (reference value: 7.78%); format: functional
K562/VCR [4] = test: Cell cycle arrest in human K562/VCR cells assessed as accumulation at S phase at 0.05 uM after 48 hrs by propidium iodide staining-based flow cytometric method (reference value: 46.02%); format: functional
K562/VCR [5] = test: Downregulation of P-gp expression in human K562/VCR cells at 0.05 uM after 48 hrs by Western blot method relative to beta-actin; format: functional
K562/VCR [6] = test: Downregulation of MRP-1 expression in human K562/VCR cells at 0.05 uM after 48 hrs by Western blot method relative to beta-actin; format: functional
K562/VCR [7] = test: Induction of autophagy in human K562/VCR cells assessed as upregulation of beclin-1 expression at 0.05 uM after 48 hrs by Western blot method relative to beta-actin; format: functional
K562/VCR [8] = test: Reduction in mitochondrial membrane potential in human K562/VCR cells at 0.1 uM after 48 hrs by JC1 probe-based flow cytometric method (reference value: 2.65%); format: functional; set-up: scale not given: the % may be the effect or the level left
K562/VCR [9] = test: Induction of apoptosis in human K562/VCR cells assessed as late apoptotic cells at 0.05 uM after 48 hrs by annexin-V-FITC/propidium iodide staining-based flow cytometric method (reference value: 1.90%); format: functional
K562/VCR [10] = test: Induction of autophagy in human K562/VCR cells assessed as upregulation of LC3-2 expression at 0.05 uM after 48 hrs by Western blot method relative to beta-actin; format: functional
Homo sapiens [11] = species on record: Homo sapiens; test: Inhibition of alpha-tubulin polymerization in human K562/VCR cells assessed as disruption of microtubule organization at 0.05 uM after 24 hrs by DAPI staining-based immunofluorescence assay; format: cell-based
K562/VCR [12] = test: Induction of apoptosis in human K562/VCR cells assessed as downregulation of CDK2 expression at 0.05 uM after 48 hrs by Western blot method relative to beta-actin; format: functional
K562/VCR [13] = test: Induction of apoptosis in human K562/VCR cells assessed as upregulation of cleaved PARP expression at 0.05 uM after 48 hrs by Western blot method relative to beta-actin; format: functional
K562/VCR [14] = test: Induction of apoptosis in human K562/VCR cells assessed as viable cells at 0.05 uM after 48 hrs by annexin-V-FITC/propidium iodide staining-based flow cytometric method (reference value: 91.05%); format: functional; details: read-out: Activity
K562/VCR [15] = test: Induction of reactive oxygen species formation in human K562/VCR cells at 0.05 uM after 24 hrs by DCFH-DA staining-based flow cytometric method (reference value: 0.41%); format: functional
K562/VCR [16] = test: Induction of apoptosis in human K562/VCR cells assessed as necrotic cells at 0.05 uM after 48 hrs by annexin-V-FITC/propidium iodide staining-based flow cytometric method (reference value: 0.15%); format: functional
K562/VCR [17] = test: Cell cycle arrest in human K562/VCR cells assessed as accumulation at G1 phase at 0.05 uM after 48 hrs by propidium iodide staining-based flow cytometric method (reference value: 46.20%); format: functional
K562/VCR [18] = test: Induction of apoptosis in human K562/VCR cells assessed as downregulation of CDK1 expression at 0.05 uM after 48 hrs by Western blot method relative to beta-actin; format: functional
K562/VCR [19] = test: Induction of apoptosis in human K562/VCR cells assessed as early apoptotic cells at 0.05 uM after 48 hrs by annexin-V-FITC/propidium iodide staining-based flow cytometric method (reference value: 6.90%); format: functional
[20] = target: RAC-alpha serine/threonine-protein kinase (Homo sapiens) (UniProt P31749); test: Inhibition of AKT phosphorylation in human K562/VCR cells at 0.05 uM after 48 hrs by Western blot method relative to beta-actin; format: cell-based
[21] = target: T1, c-Jun N-terminal kinase, JNK (Homo sapiens) (UniProt P45983+P53779+P45984); test: Induction of JNK phosphorylation in human K562/VCR cells at 0.05 uM after 48 hrs by Western blot method relative to beta-actin; format: cell-based
K562/VCR [22] = test: Downregulation of P-gp expression in human K562/VCR cells at 0.1 uM after 48 hrs by Western blot method relative to beta-actin; format: functional
K562/VCR [23] = test: Downregulation of MRP-1 expression in human K562/VCR cells at 0.1 uM after 48 hrs by Western blot method relative to beta-actin; format: functional
K562/VCR [24] = test: Induction of autophagy in human K562/VCR cells assessed as upregulation of LC3-2 expression at 0.1 uM after 48 hrs by Western blot method relative to beta-actin; format: functional
K562/VCR [25] = test: Induction of apoptosis in human K562/VCR cells assessed as early apoptotic cells at 0.1 uM after 48 hrs by annexin-V-FITC/propidium iodide staining-based flow cytometric method (reference value: 6.90%); format: functional
Homo sapiens [26] = species on record: Homo sapiens; test: Inhibition of alpha-tubulin polymerization in human K562/VCR cells assessed as disruption of microtubule organization at 0.05 to 0.1 uM after 24 hrs by DAPI staining-based immunofluorescence assay; format: cell-based
K562/VCR [27] = test: Induction of apoptosis in human K562/VCR cells assessed as viable cells at 0.1 uM after 48 hrs by annexin-V-FITC/propidium iodide staining-based flow cytometric method (reference value: 91.05%); format: functional; details: read-out: Activity
K562/VCR [28] = test: Induction of apoptosis in human K562/VCR cells assessed as downregulation of CDK1 expression at 0.1 uM after 48 hrs by Western blot method relative to beta-actin; format: functional
K562/VCR [29] = test: Cell cycle arrest in human K562/VCR cells assessed as accumulation at S phase at 0.1 uM after 48 hrs by propidium iodide staining-based flow cytometric method (reference value: 46.02%); format: functional
K562/VCR [30] = test: Induction of reactive oxygen species formation in human K562/VCR cells at 0.1 uM after 24 hrs by DCFH-DA staining-based flow cytometric method (reference value: 0.41%); format: functional
K562/VCR [31] = test: Induction of apoptosis in human K562/VCR cells assessed as late apoptotic cells at 0.1 uM after 48 hrs by annexin-V-FITC/propidium iodide staining-based flow cytometric method (reference value: 1.90%); format: functional
K562/VCR [32] = test: Induction of apoptosis in human K562/VCR cells assessed as upregulation of cleaved PARP expression at 0.1 uM after 48 hrs by Western blot method relative to beta-actin; format: functional
K562/VCR [33] = test: Cell cycle arrest in human K562/VCR cells assessed as accumulation at G1 phase at 0.1 uM after 48 hrs by propidium iodide staining-based flow cytometric method (reference value: 46.20%); format: functional
K562/VCR [34] = test: Induction of apoptosis in human K562/VCR cells assessed as downregulation of CDK2 expression at 0.1 uM after 48 hrs by Western blot method relative to beta-actin; format: functional
[35] = target: T1, c-Jun N-terminal kinase, JNK (Homo sapiens); test: Induction of JNK phosphorylation in human K562/VCR cells at 0.1 uM after 48 hrs by Western blot method relative to beta-actin; format: cell-based
K562/VCR [36] = test: Reduction in mitochondrial membrane potential in human K562/VCR cells at 0.05 uM after 48 hrs by JC1 probe-based flow cytometric method (reference value: 2.65%); format: functional; set-up: scale not given: the % may be the effect or the level left
[37] = target: RAC-alpha serine/threonine-protein kinase (Homo sapiens) (UniProt P31749); test: Inhibition of AKT phosphorylation in human K562/VCR cells at 0.1 uM after 48 hrs by Western blot method relative to beta-actin; format: cell-based
K562/VCR [38] = test: Induction of autophagy in human K562/VCR cells assessed as upregulation of beclin-1 expression at 0.1 uM after 48 hrs by Western blot method relative to beta-actin; format: functional
K562/VCR [39] = test: Induction of apoptosis in human K562/VCR cells assessed as necrotic cells at 0.1 uM after 48 hrs by annexin-V-FITC/propidium iodide staining-based flow cytometric method (reference value: 0.15%); format: functional
K562/VCR [40] = test: Cell cycle arrest in human K562/VCR cells assessed as accumulation at G2 phase at 0.1 uM after 48 hrs by propidium iodide staining-based flow cytometric method (reference value: 7.78%); format: functional

RAC-alpha serine/threonine-protein kinase (Homo sapiens), sequence (P31749 whole entry): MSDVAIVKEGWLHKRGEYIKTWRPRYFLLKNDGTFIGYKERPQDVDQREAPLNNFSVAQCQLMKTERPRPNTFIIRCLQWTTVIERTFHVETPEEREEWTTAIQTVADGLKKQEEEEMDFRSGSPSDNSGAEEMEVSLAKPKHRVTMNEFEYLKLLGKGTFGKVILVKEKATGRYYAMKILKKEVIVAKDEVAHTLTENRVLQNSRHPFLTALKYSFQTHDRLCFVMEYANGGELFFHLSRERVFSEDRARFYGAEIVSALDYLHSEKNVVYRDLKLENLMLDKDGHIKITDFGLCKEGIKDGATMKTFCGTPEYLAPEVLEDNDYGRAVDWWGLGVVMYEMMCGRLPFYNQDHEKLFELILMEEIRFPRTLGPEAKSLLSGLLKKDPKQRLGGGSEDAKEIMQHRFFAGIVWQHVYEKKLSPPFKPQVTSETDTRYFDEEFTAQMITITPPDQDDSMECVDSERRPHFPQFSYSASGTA

SMILES	IC50 (K562/VCR [1]) [nM]	IC50 (K562) [nM]	Ratio IC50 [2]	Activity (K562/VCR [3]) [%]	Activity (K562/VCR [4]) [%]	fold change (FC) (K562/VCR [5])	fold change (FC) (K562/VCR [6])	fold change (FC) (K562/VCR [7])	Activity (K562/VCR [8]) [%]	Activity (K562/VCR [9]) [%]	fold change (FC) (K562/VCR [10])	fold change (FC) (K562/VCR [12])	fold change (FC) (K562/VCR [13])	viability at 0.05 µM (K562/VCR [14]) [%]	Activity (K562/VCR [15]) [%]	Activity (K562/VCR [16]) [%]	Activity (K562/VCR [17]) [%]	fold change (FC) (K562/VCR [18])	Activity (K562/VCR [19]) [%]	fold change (FC) [20]	also measured
CC[C@]1(O)C[C@H]2CN(CCc3c([nH]c4ccccc34)[C@@](C(=O)OC)(c3cc4c(cc3OC)N(C=O)[C@H]3[C@@](O)(C(=O)OC)[C@H](OC(C)=O)[C@]5(CC)C=CCN6CC[C@]43[C@@H]65)C2)C1 [VINCRISTINE]	4740	178	26.61	–	–	–	–	–	–	–	–	–	–	–	–	–	–	–	–	–	–
COc1cc([C@@H]2c3cc4c(cc3[C@@H](O[C@@H]3O[C@@H]5CO[C@@H](C)O[C@H]5[C@H](O)[C@H]3O)[C@H]3COC(=O)[C@H]23)OCO4)cc(OC)c1O [ETOPOSIDE]	11800	764	15.49	–	–	–	–	–	–	–	–	–	–	–	–	–	–	–	–	–	–
COc1cc([C@@H]2c3cc4c(cc3[C@H](OC(=O)CCCN3C(=O)/C(=C5\Nc6ccccc6C5=O)c5ccccc53)[C@H]3COC(=O)[C@H]23)OCO4)cc(OC)c1OC	1750	1790	0.97	–	–	–	–	–	–	–	–	–	–	–	–	–	–	–	–	–	–
COc1cc([C@@H]2c3cc4c(cc3[C@H](O)[C@H]3COC(=O)[C@H]23)OCO4)cc(OC)c1OC [PODOFILOX]	50	25	2	59.28	22.9	0.27	0.22	0.78	52.5	23.21	0.65	0.37	0.61	48.6	45.54	0.08	17.81	0.27	28.1	0.33	inhibition (Homo sapiens [11]): Active; fold change (FC) [21]: 1.04
COc1cc([C@@H]2c3cc4c(cc3[C@H](OC(=O)CN3C(=O)/C(=C5\Nc6ccccc6C5=O)c5ccccc53)[C@H]3COC(=O)[C@H]23)OCO4)cc(OC)c1OC	76	34	2.23	46.93	29.81	0.4	0.31	0.52	40.38	9.61	0.78	0.44	0.46	76.8	24.27	0.07	23.26	0.44	13.48	0.6	fold change (FC) (K562/VCR [22]): 0.33; fold change (FC) (K562/VCR [23]): 0.24; fold change (FC) (K562/VCR [24]): 0.63; Activity (K562/VCR [25]): 28.58%; inhibition (Homo sapiens [26]): Active; viability at 0.1 µM (K562/VCR [27]): 52.4%; fold change (FC) (K562/VCR [28]): 0.32; Activity (K562/VCR [29]): 25.7%; Activity (K562/VCR [30]): 39.84%; Activity (K562/VCR [31]): 18.91%; fold change (FC) (K562/VCR [32]): 0.56; Activity (K562/VCR [33]): 17.33%; fold change (FC) (K562/VCR [34]): 0.36; fold change (FC) [35]: 0.84; Activity (K562/VCR [36]): 19.44%; fold change (FC) [37]: 0.43; fold change (FC) (K562/VCR [38]): 0.6; fold change (FC) [21]: 0.7; Activity (K562/VCR [39]): 0.1%; Activity (K562/VCR [40]): 56.97%
